Results published in patent US6903238B2, “Substituted indenones as estrogenic agents” (Wyeth, priority 2001, dated 2005).

System: not given
Assay: not given
Details: not given

SMILES	melting point
O=C1C(c2ccc(O)cc2)=C(Br)c2c(O)cc(O)cc21 [Example 15, 3-bromo-4,6-dihydroxy-2-(4-hydroxyphenyl)-1H-inden-1-one]	350 °C (dec.)
CCSC1=C(c2ccc(O)cc2)C(=O)c2ccc(O)cc21 [Example 7, 3-(Ethylthio)-5-hydroxy-2-(4-hydroxyphenyl)-1H-inden-1-one]	118 to 120 °C
CCNC1=C(c2ccc(O)cc2)C(=O)c2cc(O)ccc21 [Example 5, 3-(Ethylamino)-6-hydroxy-2-(4-hydroxyphenyl)-1H-inden-1-one]	250 °C (dec.)
CCSC1=C(c2ccc(O)cc2)C(=O)c2cc(O)ccc21 [Example 6, 3-(Ethylthio)-6-hydroxy-2-(4-hydroxyphenyl)-1H-inden-1-one]	78 to 81 °C
CC1=C(c2ccc(O)cc2)C(=O)c2c(O)cc(O)cc21 [Example 17, 5,7-Dihydroxy-2-(4-hydroxyphenyl)-3-methyl-1H-inden-1-one]	215 to 217 °C
CC1=C(c2ccc(O)cc2)C(=O)c2cc(O)c(O)cc21 [Example 22, 5,6-Dihydroxy-2-(4-hydroxyphenyl)-3-methyl-1H-inden-1-one]	226 to 229 °C
CC1=C(c2ccc(O)cc2)C(=O)c2cc(O)ccc21 [Example 12, 6-hydroxy-2-(4-hydroxyphenyl)-3-methyl-1H-inden-1-one]	240 to 245 °C
O=C1C(c2ccc(O)cc2)=C(c2ccccc2)c2cc(O)cc(O)c21 [Example 21, 5,7-Dihydroxy-2-(4-hydroxyphenyl)-3-phenyl-1H-inden-1-one]	128 to 130 °C
CSC1=C(c2ccc(O)cc2)C(=O)c2ccc(O)cc21 [Example 9, 5-hydroxy-2-(4-hydroxyphenyl)-3-(methylthio)-1H-inden-1-one]	183 to 185 °C
O=C1c2cc(O)cc(O)c2C(=O)C1c1ccc(O)cc1 (stereo not drawn) [Example 14, 4,6-dihydroxy-2-(4-hydroxyphenyl)-1H-inden-1,3(2H)-dione]	220 to 222 °C
CSC1=C(c2ccc(O)cc2)C(=O)c2cc(O)ccc21 [Example 8, 6-hydroxy-2-(4-hydroxyphenyl)-3-(methylthio)-1H-inden-1-one]	90 to 92 °C
O=C1C(c2ccc(O)cc2)=C(Br)c2ccc(O)cc21 [Example 3, 3-Bromo-6-hydroxy-2-(4-hydroxyphenyl)-1H-inden-1-one]	240 °C (dec.)
O=C1C(c2ccc(O)cc2)=C(c2ccccc2)c2ccc(O)cc21 [Example 10, 6-hydroxy-2-(4-hydroxyphenyl)-3-phenyl-1H-inden-1-one]	100 to 110 °C
CSC1=C(c2ccc(O)cc2)C(=O)c2cc(O)cc(O)c21 [Example 18, 4,6-Dihydroxy-2-(4-hydroxyphenyl)-3-(methylthio)-1H-inden-1-one]	208 to 210 °C
O=C1c2ccc(O)cc2C(=O)C1c1ccc(O)cc1 (stereo not drawn) [Example 2, 5-Hydroxy-2-(4-hydroxyphenyl)-1H-indene-1,3(2H)-dione]	227 to 228 °C
O=C1C(c2ccc(O)cc2)=C(Br)c2cc(O)ccc21 [Example 4, 3-Bromo-5-hydroxy-2-(4-hydroxyphenyl)-1H-inden-1-one]	245 °C (dec.)
O=C1C(c2ccc(O)cc2)=C(c2ccccc2)c2cc(O)ccc21 [Example 11, 5-hydroxy-2-(4-hydroxyphenyl)-3-phenyl-1H-inden-1-one]	222 to 225 °C
NC1=C(c2ccc(O)cc2)C(=O)c2ccc(O)cc21 [Example 1, 3-Amino-5-hydroxy-2-(4-hydroxyphenyl)-1H-inden-1-one]	260 to 265 °C
O=C1C(c2ccc(O)cc2)=C(c2ccccc2)c2c(O)cc(O)cc21 [Example 20, 4,6-Dihydroxy-2-(4-hydroxyphenyl)-3-phenyl-1H-inden-1-one]	223 to 225 °C
COc1cc(O)cc2c1C(Br)=C(c1ccc(O)cc1)C2=O [Example 16, 3-bromo-6-hydroxy-2-(4-hydroxyphenyl)-4-methoxy-1H-inden-1-one]	210 °C (dec.)
CC1=C(c2ccc(O)cc2)C(=O)c2ccc(O)cc21 [Example 13, 5-hydroxy-2-(4-hydroxyphenyl)-3-methyl-1H-inden-1-one]	251 °C
CCSC1=C(c2ccc(O)cc2)C(=O)c2cc(O)cc(O)c21 [Example 19, 3-(Ethylthio)-4,6-Dihydroxy-2-(4-hydroxyphenyl)-1H-inden-1-one]	187 to 190 °C

System: metallothionein-II mRNA in Saos-2 cells
Assay: Regulation of metallothionein II mRNA in Saos-2 cells
Type: cell-based
Details: not given

SMILES	Fold upregulation of metallothionein-II mRNA
O=C1C(c2ccc(O)cc2)=C(Br)c2c(O)cc(O)cc21 [Example 15, 3-bromo-4,6-dihydroxy-2-(4-hydroxyphenyl)-1H-inden-1-one]	5.6
O=C1C(c2ccc(O)cc2)=C(Br)c2ccc(O)cc21 [Example 3, 3-Bromo-6-hydroxy-2-(4-hydroxyphenyl)-1H-inden-1-one]	10.8
O=C1C(c2ccc(O)cc2)=C(Br)c2cc(O)ccc21 [Example 4, 3-Bromo-5-hydroxy-2-(4-hydroxyphenyl)-1H-inden-1-one]	10.4

Target: T1, human ERβ (Homo sapiens, UniProt Q92731)
T1 construct: M250-V595 of human ERα [Green, et al., Nature 320: 134-9 (1986)] and M214-Q530 of human ERβ; Flag (C); made in house; host or cells: E. coli BL21(DE3)
Assay: Radioligand binding competition with [3H]-17β-estradiol, ERβ
Details: not given

T1 sequence (Q92731 214-530): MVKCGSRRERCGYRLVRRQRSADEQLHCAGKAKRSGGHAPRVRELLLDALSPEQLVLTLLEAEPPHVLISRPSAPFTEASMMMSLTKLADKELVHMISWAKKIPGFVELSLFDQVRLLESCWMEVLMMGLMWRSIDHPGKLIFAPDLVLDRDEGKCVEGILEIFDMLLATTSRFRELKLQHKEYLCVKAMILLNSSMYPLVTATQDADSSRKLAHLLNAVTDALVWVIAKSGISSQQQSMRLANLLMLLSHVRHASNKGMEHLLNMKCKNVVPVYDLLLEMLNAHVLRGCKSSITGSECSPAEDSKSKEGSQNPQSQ

SMILES	IC50
CC1=C(c2ccc(O)cc2)C(=O)c2c(O)cc(O)cc21 [Example 17, 5,7-Dihydroxy-2-(4-hydroxyphenyl)-3-methyl-1H-inden-1-one]	2 nM
CSC1=C(c2ccc(O)cc2)C(=O)c2ccc(O)cc21 [Example 9, 5-hydroxy-2-(4-hydroxyphenyl)-3-(methylthio)-1H-inden-1-one]	1 nM
O=C1C(c2ccc(O)cc2)=C(c2ccccc2)c2ccc(O)cc21 [Example 10, 6-hydroxy-2-(4-hydroxyphenyl)-3-phenyl-1H-inden-1-one]	8 nM
O=C1C(c2ccc(O)cc2)=C(Br)c2cc(O)ccc21 [Example 4, 3-Bromo-5-hydroxy-2-(4-hydroxyphenyl)-1H-inden-1-one]	2 nM
O=C1C(c2ccc(O)cc2)=C(c2ccccc2)c2cc(O)ccc21 [Example 11, 5-hydroxy-2-(4-hydroxyphenyl)-3-phenyl-1H-inden-1-one]	5 nM
NC1=C(c2ccc(O)cc2)C(=O)c2ccc(O)cc21 [Example 1, 3-Amino-5-hydroxy-2-(4-hydroxyphenyl)-1H-inden-1-one]	1150 nM
CCSC1=C(c2ccc(O)cc2)C(=O)c2cc(O)cc(O)c21 [Example 19, 3-(Ethylthio)-4,6-Dihydroxy-2-(4-hydroxyphenyl)-1H-inden-1-one]	2 nM

Same assay, conditions: competition with [3H]-17β-estradiol, human ERβ ligand binding domain; read-out: ER-β IC50

SMILES	IC50
O=C1C(c2ccc(O)cc2)=C(Br)c2c(O)cc(O)cc21 [Example 15, 3-bromo-4,6-dihydroxy-2-(4-hydroxyphenyl)-1H-inden-1-one]	267 nM
CCSC1=C(c2ccc(O)cc2)C(=O)c2ccc(O)cc21 [Example 7, 3-(Ethylthio)-5-hydroxy-2-(4-hydroxyphenyl)-1H-inden-1-one]	150 nM
CCNC1=C(c2ccc(O)cc2)C(=O)c2cc(O)ccc21 [Example 5, 3-(Ethylamino)-6-hydroxy-2-(4-hydroxyphenyl)-1H-inden-1-one]	2700 nM
CCSC1=C(c2ccc(O)cc2)C(=O)c2cc(O)ccc21 [Example 6, 3-(Ethylthio)-6-hydroxy-2-(4-hydroxyphenyl)-1H-inden-1-one]	8 nM
CC1=C(c2ccc(O)cc2)C(=O)c2cc(O)c(O)cc21 [Example 22, 5,6-Dihydroxy-2-(4-hydroxyphenyl)-3-methyl-1H-inden-1-one]	131 nM
CC1=C(c2ccc(O)cc2)C(=O)c2cc(O)ccc21 [Example 12, 6-hydroxy-2-(4-hydroxyphenyl)-3-methyl-1H-inden-1-one]	11 nM
O=C1c2cc(O)cc(O)c2C(=O)C1c1ccc(O)cc1 (stereo not drawn) [Example 14, 4,6-dihydroxy-2-(4-hydroxyphenyl)-1H-inden-1,3(2H)-dione]	1380 nM
CSC1=C(c2ccc(O)cc2)C(=O)c2cc(O)ccc21 [Example 8, 6-hydroxy-2-(4-hydroxyphenyl)-3-(methylthio)-1H-inden-1-one]	3 nM
O=C1c2ccc(O)cc2C(=O)C1c1ccc(O)cc1 (stereo not drawn) [Example 2, 5-Hydroxy-2-(4-hydroxyphenyl)-1H-indene-1,3(2H)-dione]	2630 nM
O=C1C(c2ccc(O)cc2)=C(c2ccccc2)c2c(O)cc(O)cc21 [Example 20, 4,6-Dihydroxy-2-(4-hydroxyphenyl)-3-phenyl-1H-inden-1-one]	44 nM
COc1cc(O)cc2c1C(Br)=C(c1ccc(O)cc1)C2=O [Example 16, 3-bromo-6-hydroxy-2-(4-hydroxyphenyl)-4-methoxy-1H-inden-1-one]	150 nM
CC1=C(c2ccc(O)cc2)C(=O)c2ccc(O)cc21 [Example 13, 5-hydroxy-2-(4-hydroxyphenyl)-3-methyl-1H-inden-1-one]	2 nM

Target: T2, human ERα (Homo sapiens, UniProt P03372)
T2 sequence (P03372 250-595): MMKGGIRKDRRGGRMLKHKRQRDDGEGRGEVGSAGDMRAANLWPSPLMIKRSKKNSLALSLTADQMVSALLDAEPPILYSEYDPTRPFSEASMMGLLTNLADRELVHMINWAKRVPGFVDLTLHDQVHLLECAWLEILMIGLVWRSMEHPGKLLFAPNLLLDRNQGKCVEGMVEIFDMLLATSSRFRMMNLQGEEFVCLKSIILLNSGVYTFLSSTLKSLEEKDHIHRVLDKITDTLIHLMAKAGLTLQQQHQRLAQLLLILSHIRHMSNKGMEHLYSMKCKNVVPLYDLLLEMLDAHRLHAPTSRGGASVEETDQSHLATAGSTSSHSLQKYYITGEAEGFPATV
Assay: Radioligand binding competition with [3H]-17β-estradiol, ERα
Details: competition with [3H]-17β-estradiol, human ERα ligand binding domain; read-out: ER-α IC50

SMILES	IC50
O=C1C(c2ccc(O)cc2)=C(Br)c2c(O)cc(O)cc21 [Example 15, 3-bromo-4,6-dihydroxy-2-(4-hydroxyphenyl)-1H-inden-1-one]	714 nM
CCSC1=C(c2ccc(O)cc2)C(=O)c2ccc(O)cc21 [Example 7, 3-(Ethylthio)-5-hydroxy-2-(4-hydroxyphenyl)-1H-inden-1-one]	400 nM
CCNC1=C(c2ccc(O)cc2)C(=O)c2cc(O)ccc21 [Example 5, 3-(Ethylamino)-6-hydroxy-2-(4-hydroxyphenyl)-1H-inden-1-one]	> 5000 nM
CCSC1=C(c2ccc(O)cc2)C(=O)c2cc(O)ccc21 [Example 6, 3-(Ethylthio)-6-hydroxy-2-(4-hydroxyphenyl)-1H-inden-1-one]	10 nM
CC1=C(c2ccc(O)cc2)C(=O)c2c(O)cc(O)cc21 [Example 17, 5,7-Dihydroxy-2-(4-hydroxyphenyl)-3-methyl-1H-inden-1-one]	31 nM
CC1=C(c2ccc(O)cc2)C(=O)c2cc(O)c(O)cc21 [Example 22, 5,6-Dihydroxy-2-(4-hydroxyphenyl)-3-methyl-1H-inden-1-one]	76 nM
CC1=C(c2ccc(O)cc2)C(=O)c2cc(O)ccc21 [Example 12, 6-hydroxy-2-(4-hydroxyphenyl)-3-methyl-1H-inden-1-one]	55 nM
CSC1=C(c2ccc(O)cc2)C(=O)c2ccc(O)cc21 [Example 9, 5-hydroxy-2-(4-hydroxyphenyl)-3-(methylthio)-1H-inden-1-one]	3 nM
CSC1=C(c2ccc(O)cc2)C(=O)c2cc(O)ccc21 [Example 8, 6-hydroxy-2-(4-hydroxyphenyl)-3-(methylthio)-1H-inden-1-one]	12 nM
O=C1C(c2ccc(O)cc2)=C(Br)c2ccc(O)cc21 [Example 3, 3-Bromo-6-hydroxy-2-(4-hydroxyphenyl)-1H-inden-1-one]	290 nM
O=C1C(c2ccc(O)cc2)=C(c2ccccc2)c2ccc(O)cc21 [Example 10, 6-hydroxy-2-(4-hydroxyphenyl)-3-phenyl-1H-inden-1-one]	10 nM
O=C1C(c2ccc(O)cc2)=C(Br)c2cc(O)ccc21 [Example 4, 3-Bromo-5-hydroxy-2-(4-hydroxyphenyl)-1H-inden-1-one]	5 nM
O=C1C(c2ccc(O)cc2)=C(c2ccccc2)c2cc(O)ccc21 [Example 11, 5-hydroxy-2-(4-hydroxyphenyl)-3-phenyl-1H-inden-1-one]	15 nM
NC1=C(c2ccc(O)cc2)C(=O)c2ccc(O)cc21 [Example 1, 3-Amino-5-hydroxy-2-(4-hydroxyphenyl)-1H-inden-1-one]	> 5000 nM
O=C1C(c2ccc(O)cc2)=C(c2ccccc2)c2c(O)cc(O)cc21 [Example 20, 4,6-Dihydroxy-2-(4-hydroxyphenyl)-3-phenyl-1H-inden-1-one]	47 nM
COc1cc(O)cc2c1C(Br)=C(c1ccc(O)cc1)C2=O [Example 16, 3-bromo-6-hydroxy-2-(4-hydroxyphenyl)-4-methoxy-1H-inden-1-one]	200 nM
CC1=C(c2ccc(O)cc2)C(=O)c2ccc(O)cc21 [Example 13, 5-hydroxy-2-(4-hydroxyphenyl)-3-methyl-1H-inden-1-one]	6 nM
CCSC1=C(c2ccc(O)cc2)C(=O)c2cc(O)cc(O)c21 [Example 19, 3-(Ethylthio)-4,6-Dihydroxy-2-(4-hydroxyphenyl)-1H-inden-1-one]	3 nM

Same assay, conditions: read-out: ER-α IC50

SMILES	IC50
O=C1C(c2ccc(O)cc2)=C(c2ccccc2)c2cc(O)cc(O)c21 [Example 21, 5,7-Dihydroxy-2-(4-hydroxyphenyl)-3-phenyl-1H-inden-1-one]	3 nM
